Laboratory results: publication PMC6864647, “Synthesis and Antiviral Activity of Novel 1,3,4-Thiadiazole Inhibitors of DDX3X” (Molecules, 2019)
Where two headings read alike, the source gives them in different places.

Legend:
DDX3X ATPase = molecular target: T1, DDX3X ATPase (Homo sapiens, UniProt O00571); test: DDX3X ATPase assay (ADP-Glo); assay type: biochemical; conditions: recombinant human DDX3X, 50 μM ATP, mean ± SD of three experiments; for Ki: read-out: DDX3X ATPase Ki (apparent dissociation constant for inhibitor binding)
T1 construct: Recombinant his-tagged human full length DDX3X was cloned into the E. coli expression vector pET-30a(+); His tag; made in house; host or cells: Shuffle T7 E. coli
Protocol: Recombinant his-tagged human full length DDX3X was cloned into the E. coli expression vector pET-30a(+). Shuffle T7 E. coli cells were transformed with the plasmid and grown at 37 °C up to OD600 = 0.7. DDX3X expression was induced with 0.5 mM IPTG at 15 °C O/N. The cells were harvested by centrifugation, lysed, and the crude extract centrifuged at 100.000xg for 60 min. at 4 °C in a Beckman centrifuge before being loaded onto a FPLC Ni-NTA column (GE Healthcare). Column was equilibrated in Buffer A (50 mM Tris-HCl pH 8.0, 250 mM NaCl, 25 mM Imidazole, and 20% glycerol). After extensive washing in Buffer A, the column was eluted with a linear gradient in Buffer A from 25 mM to 250 mM Imidazole. Proteins in the eluted fractions were visualized on SDS-PAGE and then tested for the presence of DDX3X by Western blot with anti-DDX3X A300-475A(BETHYL) at 1:2000 dilution in 5% milk. Fractions containing the purest DDX3X protein were pooled and stored at −80 °C.
The ATPase assay was carried out by using the commercial kit Promega (Milan, Italy), ADP-Glo^TM Kinase Assay. Reaction was performed in 30 mM TrisHCl pH 8, 9 mM MgCl2, 0.05 mg/mL BSA, 50 μM ATP, and 4 μM of recombinant DDX3X. Reaction was performed following the ADP-Glo^TM Kinase Assay Protocol and luminescence was measured with MicroBeta TriLux (Perkin Elmer, Milan, Italy).

[1] = Cytotoxicity assay in H9 cells (CellTiter-Glo 2.0); assay type: cell-based, human; conditions: human; non-infected H9 cells, 72 h
Protocol: (§1) Cytotoxicity in H9 cells was determined by using the CellTiter-Glo 2.0 assay (Promega). H9 cells were seeded at 40,000 cells/well in duplicate in the presence of serial two-fold dilutions of compounds (range 200–1.56 μM) and incubated for 72 h. Cell viability was calculated by measuring cellular ATP as a marker of metabolically active cells through a luciferase based chemical reaction and expressed as the concentration that reduce cell viability by 50%.

HIV-1 (NL4-3) = test: Antiviral BiCycle assay, HIV-1 NL4-3 in H9 cells with TZM-bl readout; assay type: cell-based; conditions: 72 h, then TZM-bl reporter cells 48 h
Protocol: The antiviral activity was evaluated by measuring the half maximal inhibitory concentration (IC50) values against the HIV-1 wild-type reference strain NL4-3 in a TZM-bl cell line based phenotypic assay, named BiCycle Assay. The method includes a first round of infection of human T cell lymphoma derived clone H9 at multiplicity of infection of 0.03 in the presence of serial dilution of compounds in a 96-well plate. After 72 h, 50 microliters of supernatants from each well were used to infect the TZM-bl cell line, which allow the quantitative analysis of HIV infection by measuring the expression of the luciferase gene integrated in the genome of the cells under the control of HIV-1 LTR promoter.
After 48 h, dose-response curves were generated by measuring reporter gene expression in each well by using the Bright-Glo Luciferase Assay (Promega) through the GloMax Discovery reader (Promega). Relative luminescence units measured in each well were elaborated with the GraphPad Software v.6.0 to calculate IC50 values. All the viruses and cell lines were obtained through the NIH AIDS Reagent Program (www.aidsreagent.org).

Water solubility assay = assay type: physicochemical; conditions: 27 °C, thermodynamic from solid, 1 mg in 1 mL water
Protocol: […] After 24 h of stirring at 27 °C, the mixture was filtered and the quantity of solubilized compound determined by LC-MS-MS. […] By contrast, esters 30 and 31 due to their lipophilicity have values outside the recommended range […].
The appropriate (1 mg) was added to 1 mL of water. The sample was shaken in a shaker bath at room temperature for 24–36 h. The suspensions were filtered through a 0.45 μm nylon filter (Acrodisc, Sigma Aldrich, Milan, Italy) and the solubilized compound determined by LC-MS-MS assay. The determination was performed in triplicate. For the quantification, an LC-MS system consisting of a Varian apparatus (Varian Inc., Palo Alto, CA, USA), including a vacuum solvent degassing unit, two pumps (212-LC), a Triple Quadrupole MSD (Mod. 320-LC) mass spectrometer with ES interface, and Varian MS Workstation System Control Vers. 6.9 software, was used. Chromatographic separation was obtained while using a 3 μm particle size Pursuit C18 column (50 × 2.0 mm) (Varian). Column was equilibrated in Buffer B (aqueous solution of 0.1% formic acid) and eluted with a linear increase from 0% to 70% gradient of Buffer A (ACN) for 10 min. and subsequent increase up to 98% for additional 5 min. The instrument operated in positive mode and the following parameters were used: injection volume 5 μL, flow rate 0.3 mL/min, detector 1850 V, drying gas pressure 25.0 psi, desolvation temperature 300.0 °C, nebulizing gas 45.0 psi, needle 5000 V, and shield 600 V. Nebulizer gas and drying gas was Nitrogen. Argon was the collision gas at a pressure of 1.8 mTorr in the collision cell. Single compound quantification was performed in comparison with standard calibration curves in methanol.

[2] = Parallel Artificial Membrane Permeability Assay (PAMPA); assay type: in vitro ADME; conditions: pH 7.4, 5 h; for Papp at 5 h, 0.5 mM: room temperature, read-out: AppP (apparent permeability)
Protocol: Finally, we evaluated passive membrane permeability (AppP) while using Parallel Artificial Membrane Permeability Assay (PAMPA). The quantity of compound able to diffuse through a semipermeable artificial membrane was calculated by LC-MS-MS.
Donor solution (0.5 mM) was prepared by diluting 1 mM dimethylsulfoxide (DMSO) compound stock solution while using phosphate buffer (pH 7.4, 0.025 M). Filters were coated with 5 μL of a 1% (w/v) dodecane solution of phosphatidylcholine for intestinal permeability. Donor solution (150 μL) was added to each well of the filter plate. To each well of the acceptor plate was added 300 μL of solution (50% DMSO in phosphate buffer). All of the compounds were tested in three different plates on different days. The sandwich was incubated for 5 h at room temperature under gentle shaking. After the incubation time, the plates were separated, and samples were taken from both receiver and donor sides and analyzed while using LC with UV detection at 280 nm. LC analysis was performed with a PerkinElmer (series 200) instrument that was equipped with an UV detector (PerkinElmer 785A, UV/vis Detector). Chromatographic separation was conducted using a Polaris C18 column (150–4.6 mm, 5 μm particle size) at a flow rate of 0.8 mL min^−1 with a mobile phase composed of 60% ACN/40% H2O-formic acid 0.1% for all compounds. Permeability (Papp) was calculated according to the following equation with some modification to obtain permeability values in cm/s, (1) Papp=VDVA/(VD+VA)At−ln(1−r) where VA is the volume in the acceptor well, VD is the volume in the donor well (cm^3), A is the “effective area” of the membrane (cm^2), t is the incubation time (s), and r the ratio between drug concentration in the acceptor and equilibrium concentration of the drug in the total volume(VD + VA).
Drug concentration is estimated by using the peak area integration. Membrane retentions (%) were calculated according to the following equation:(2) %MR=[r−(D+A)]100/Eq where r is the ratio between drug concentration in the acceptor and equilibrium concentration, D, A, and Eq represented drug concentration in the donor, acceptor, and equilibrium solution, respectively.

H9 cells = test: Cytotoxicity assay in H9 cells (CellTiter-Glo 2.0); assay type: cell-based, human; conditions: CC50 in H9 cells versus anti-HIV-1 IC50
Protocol: as §1

HIV-1 = system: HIV-1; parameters: method as in PMID 18834110; conditions: MT4 cells; read-out: EC50, inhibition of HIV-1 replication; cited from earlier work
DDX3X = molecular target: DDX3X; parameters: method as in PMID 21698775; conditions: cited from earlier work
[3] = Human immunodeficiency virus 1, NL43, H9 cells
[4] = read-out: AqS (aqueous solubility)
[5] = read-out: AqS as Log of molar concentration (LogS) (converted)

T1 sequence (O00571 whole entry): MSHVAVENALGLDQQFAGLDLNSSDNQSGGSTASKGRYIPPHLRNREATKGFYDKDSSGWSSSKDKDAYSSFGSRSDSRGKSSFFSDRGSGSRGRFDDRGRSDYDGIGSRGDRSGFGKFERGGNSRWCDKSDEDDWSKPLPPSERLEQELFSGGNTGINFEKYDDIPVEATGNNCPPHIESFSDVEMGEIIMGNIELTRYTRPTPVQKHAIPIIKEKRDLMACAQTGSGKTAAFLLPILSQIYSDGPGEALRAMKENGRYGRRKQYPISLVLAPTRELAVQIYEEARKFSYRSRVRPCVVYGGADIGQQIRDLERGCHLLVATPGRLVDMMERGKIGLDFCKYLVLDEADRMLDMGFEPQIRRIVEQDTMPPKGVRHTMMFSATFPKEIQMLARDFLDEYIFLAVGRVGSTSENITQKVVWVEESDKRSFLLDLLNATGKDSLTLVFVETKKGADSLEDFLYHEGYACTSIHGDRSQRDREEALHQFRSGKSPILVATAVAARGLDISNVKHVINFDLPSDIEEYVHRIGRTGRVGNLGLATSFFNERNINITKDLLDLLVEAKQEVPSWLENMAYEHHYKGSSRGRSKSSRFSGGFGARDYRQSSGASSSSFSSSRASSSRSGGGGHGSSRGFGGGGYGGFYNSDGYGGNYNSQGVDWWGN

Row | Ki (DDX3X ATPase) [µM] | IC50 (HIV-1 (NL4-3); [3]) [µM] | solubility at 24 h (Water solubility assay; [4]) [µg/mL] | solubility at 24 h (Water solubility assay; [5]) [µM] | Percentage in parentheses beside AppP (membrane retention) [2] [%] | Papp at 5 h, 0.5 mM [2] [nm/s] | Compound | CC50 at 72 h [1] [µM] | further results
1 | > 50 |  |  |  |  |  | COc1ccc(-c2nnc(N3C(=O)c4ccccc4C3=O)s2)cc1 [Compound 17, 2-(5-(4-Methoxyphenyl)-1,3,4-thiadiazol-2-yl)isoindoline-1,3-dione] |  | DDX3X ATPase Ki (apparent dissociation constant for inhibitor binding) (DDX3X ATPase): completely inactive
2 | 1.3 ± 0.2 | > 50 | 3.3 | 9.33 | 0 | < 1 | COc1ccc(-c2nnc(NC(=O)c3ccccc3C(=O)O)s2)cc1 [Compound 23, 2-((5-(4-Methoxyphenyl)-1,3,4-thiadiazol-2-yl)carbamoyl)benzoic acid] | > 200 | HIV-1 (NL4-3) IC50 (HIV-1 (NL4-3); H9 cells): inactive
3 | 1.9 ± 0.4 | 3.9 | 27.8 | 83.2 | 0 | < 1 | O=C(O)c1ccccc1C(=O)Nc1nnc(-c2ccc(O)cc2)s1 [Compound 24, 2-((5-(4-Hydroxyphenyl)-1,3,4-thiadiazol-2-yl)carbamoyl)benzoic acid] | 125 | SI (selectivity index) (H9 cells): 45; IC50 (HIV-1 (NL4-3); H9 cells): 2.8 ± 1.5 µM
4 |  |  |  |  |  |  | O=C(O)c1ccccc1C(=O)Nc1nnc(-c2ccccc2Br)s1 [Compound 25, 2-((5-(2-Bromophenyl)-1,3,4-thiadiazol-2-yl)carbamoyl)benzoic acid] |  | DDX3X ATPase Ki (apparent dissociation constant for inhibitor binding) (DDX3X ATPase): abolished
5 | 11.9 ± 1.9 | > 50 |  |  |  |  | CN(C)c1ccc(-c2nnc(NC(=O)c3ccccc3C(=O)O)s2)cc1 [Compound 27, 2-((5-(4-(Dimethylamino)phenyl)-1,3,4-thiadiazol-2-yl)carbamoyl)benzoic acid] | 130 | 
6 | 18.3 ± 1.8 | 42.3 ± 5.2 |  |  |  |  | O=C(O)c1ccccc1C(=O)Nc1nnc(-c2ccccc2[N+](=O)[O-])s1 [Compound 28, 2-((5-(2-Nitrophenyl)-1,3,4-thiadiazol-2-yl)carbamoyl)benzoic acid] | 74 | SI (selectivity index) (H9 cells): 1.7
7 | 15.6 |  | 0.5 | 1.35 | 36 | 7 | COC(=O)c1ccccc1C(=O)Nc1nnc(-c2ccc(OC)cc2)s1 [Compound 29, Methyl 2-((5-(4-methoxyphenyl)-1,3,4-thiadiazol-2-yl)carbamoyl)benzoate] | 45 | 
8 | 20.1 ± 2.1 | > 50 | < 0.1 | > 1 | 4.6 | 21 | CCOC(=O)c1ccccc1C(=O)Nc1nnc(-c2ccc(OC)cc2)s1 [Compound 30, Ethyl 2-((5-(4-methoxyphenyl)-1,3,4-thiadiazol-2-yl)carbamoyl)benzoate] | > 200 | 
9 | 23.5 ± 2.5 | 16 ± 10 | < 0.1 | > 1 | 25.9 | 61 | CCCCOC(=O)c1ccccc1C(=O)Nc1nnc(-c2ccc(OC)cc2)s1 [Compound 31, Butyl 2-((5-(4-methoxyphenyl)-1,3,4-thiadiazol-2-yl)carbamoyl)benzoate] | 100 | 
10 |  |  |  |  |  |  | COC(=O)c1ccccc1C(=O)Nc1nnc(-c2ccccc2[N+](=O)[O-])s1 [Compound 32, Methyl 2-((5-(2-nitrophenyl)-1,3,4-thiadiazol-2-yl)carbamoyl)benzoate] |  | DDX3X ATPase Ki (apparent dissociation constant for inhibitor binding) (DDX3X ATPase): annulled enzymatic inhibition
11 | 35.4 ± 3.5 | > 50 |  |  |  |  | O=C(Nc1nnc(-c2ccccc2[N+](=O)[O-])s1)c1ccccc1S(=O)(=O)O [Compound 34, 2-((5-(2-Nitrophenyl)-1,3,4-thiadiazol-2-yl)carbamoyl)benzenesulfonic acid] | 110 | 
12 | 20.1 ± 2.1 | > 50 |  |  |  |  | Nc1ccccc1-c1nnc(NC(=O)c2ccccc2S(=O)(=O)O)s1 [Compound 35, 2-((5-(2-Aminophenyl)-1,3,4-thiadiazol-2-yl)carbamoyl)benzenesulfonic acid] | 130 | 
13 |  |  |  |  |  |  | Nc1ccccc1-c1nnc(NC(=O)c2ccccc2C(=O)O)s1 [Compound 36, 2-((5-(2-Aminophenyl)-1,3,4-thiadiazol-2-yl)carbamoyl)benzoic acid] |  | DDX3X ATPase Ki (apparent dissociation constant for inhibitor binding) (DDX3X ATPase): total loss of inhibitory capability
14 |  |  |  |  |  |  | O=C(CN1C(=O)/C(=C/c2cccc(Br)c2)SC1=S)Nc1ccccc1O [FE15] |  | EC50 (HIV-1): 86.7 µM
15 |  |  |  |  |  |  | O=C1/C(=C/c2c(NCCCO)nc3ccccn3c2=O)SC(=S)N1CCc1ccccc1 [FE109] |  | Ki (DDX3X): 0.2 µM
